Source: US20080171716A1, “NUCLEIC ACID MODULATION OF TOLL-LIKE RECEPTOR-MEDIATED IMMUNE STIMULATION” (Protiva Biotherapeutics, Inc., priority 2006, published 2008)

Columns and labels:
TLR7 [1] = target: T1, TLR7 (Mus musculus, UniProt P58681); assay: In vivo inhibition of loxoribine-mediated cytokine induction in mice; set-up: from tissue; host or cells: whole animal: female Balb/C mice, plasma cytokines; species or system Balb/C mice
T1 sequence (P58681 27-1050): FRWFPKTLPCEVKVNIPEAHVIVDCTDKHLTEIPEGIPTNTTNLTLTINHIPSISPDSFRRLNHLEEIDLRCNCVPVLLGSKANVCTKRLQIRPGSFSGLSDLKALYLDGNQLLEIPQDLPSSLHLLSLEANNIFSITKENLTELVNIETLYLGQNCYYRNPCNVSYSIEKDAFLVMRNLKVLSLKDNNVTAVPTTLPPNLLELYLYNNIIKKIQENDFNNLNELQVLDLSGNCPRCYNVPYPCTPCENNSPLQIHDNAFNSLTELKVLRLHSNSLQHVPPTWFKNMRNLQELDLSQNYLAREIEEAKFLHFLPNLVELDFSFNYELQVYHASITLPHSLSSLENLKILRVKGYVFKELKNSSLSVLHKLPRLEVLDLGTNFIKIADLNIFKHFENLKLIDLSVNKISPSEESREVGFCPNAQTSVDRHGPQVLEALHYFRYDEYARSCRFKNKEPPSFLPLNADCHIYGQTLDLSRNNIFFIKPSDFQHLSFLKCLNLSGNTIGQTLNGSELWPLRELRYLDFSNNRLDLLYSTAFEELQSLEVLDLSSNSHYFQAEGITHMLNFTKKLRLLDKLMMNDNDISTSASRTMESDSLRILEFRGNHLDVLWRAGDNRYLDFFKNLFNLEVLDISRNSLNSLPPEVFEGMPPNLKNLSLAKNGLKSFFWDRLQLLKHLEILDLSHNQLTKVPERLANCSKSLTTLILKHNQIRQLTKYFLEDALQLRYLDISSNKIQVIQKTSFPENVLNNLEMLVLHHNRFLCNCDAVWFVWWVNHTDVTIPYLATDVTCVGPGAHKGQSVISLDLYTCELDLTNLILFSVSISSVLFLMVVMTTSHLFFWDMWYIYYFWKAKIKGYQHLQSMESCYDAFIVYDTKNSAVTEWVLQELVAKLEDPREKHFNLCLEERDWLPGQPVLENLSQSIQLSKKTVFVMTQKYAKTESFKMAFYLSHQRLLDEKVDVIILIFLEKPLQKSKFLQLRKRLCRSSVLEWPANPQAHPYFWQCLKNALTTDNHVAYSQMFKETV
Experimental: Cytokine ELISA. All cytokines were quantified using sandwich ELISA kits according to the manufacturer's instructions. These were mouse and human IFN-α (PBL Biomedical; Piscataway, N.J.) and IL-6 (eBioscience; San Diego, Calif.).
In Vivo Cytokine Induction. Animal studies were performed at Protiva Biotherapeutics in accordance with Canadian Council on Animal Care guidelines and following protocol approval by the local Animal Care and Use Committee. Female Balb/C mice were subjected to a two-week quarantine and acclimation period prior to use at six to eight-weeks of age. RNA formulations were administered by standard injection in the lateral tail vein in 0.2 ml PBS. Six hours after injection, blood was collected by cardiac puncture and processed as plasma for cytokine analysis. In experiments studying inhibition of cytokine induction by loxoribine, formulated RNA (100 μg) was administered IV 2 h prior to IV administration of 1 mg loxoribine in PBS. Blood was collected by cardiac puncture 2 h after administration of loxoribine and processed as plasma for cytokine analysis.

TLR7 [2] = target: T1, TLR7; assay: Immunostimulatory ssRNA-induced IFN-α/IL-6 production in murine Flt3L-derived dendritic cells; assay type: cell-based; set-up: Femurs and tibiae of female Balb/C mice were isolated; endogenous in cells; host or cells: Flt3L-derived dendritic cells cultured from bone marrow of female Balb/C mice; conditions: murine Flt3L DC; 1:1 molar ratio; 24 h
Experimental: Lipid Encapsulation of RNA and ODN. RNA or ODN were encapsulated in liposomes by a process of spontaneous vesicle formation as described in Judge et al., supra, and Jeffs et al., Pharm. Res., 22:362-372 (2005).
Flt3L-derived dendritic cells (DC) were generated as described in Gilliet et al., J. Exp. Med., 195:953-958 (2002), using 100 ng/ml murine Flt3-ligand (Peprotech) supplemented media. Femurs and tibiae of female Balb/C mice were isolated and rinsed in sterile PBS. The ends of bones were cut and marrow harvested in complete media (RPMI 1640, 10% heat inactivated FBS, 1% penicillin/streptomycin, 2 mM L-glutamine, 1 mM sodium pyruvate, 25 mM HEPES, 50 μM 2-mercaptoethanol). Bone marrow cells were passed through a 70 μm strainer and centrifuged at 1000 rpm for 7 min. and resuspended in complete media supplemented with 100 ng/ml murine Flt3L to 2×10^6 cells/ml. 2 ml of cells were seeded in 6-well plates and 1 ml fresh media was added every two to three days. On day 9 of culture, non-adherent cells were washed in complete media and plated into 96-well plates at concentrations ranging from 0.5 to 2.5×10^5 cells/well. […]
Cytokine ELISA. All cytokines were quantified using sandwich ELISA kits according to the manufacturer's instructions. […]

[3] = 100 μg formulated RNA IV 2 h prior to 1 mg Lox IV, plasma 2 h after Lox

polyUmod21: 2′OMe-uridine homopolymer of 21 nucleotides in length (UUUUUUUUUUUUUUUUUUUUU; all 2'-O-methyl, backbone not given here)
reduction of plasma IFN-α compared to PBS pre-treatment (TLR7 [1]; [3]): 79%+/−5%
reduction of plasma IFN-α compared to mice treated with GFP-S ssRNA (TLR7 [1]; [3]): 92%+/−2%
reduction of plasma IL-6 compared to PBS pre-treatment (TLR7 [1]; [3]): 72%+/−8%
reduction of plasma IL-6 compared to mice treated with GFP-S ssRNA (TLR7 [1]; [3]): 96%+/−1%
loxoribine-mediated cytokine induction relative to GFP-S ssRNA and PBS treated mice (TLR7 [1]; pre-treatment 2 h prior to 1 mg Lox): significantly reduced
IFN-α production induced by immunostimulatory ssRNA when co-administered (TLR7 [2]): completely abrogated measurable
IL-6 production induced by immunostimulatory ssRNA when co-administered (TLR7 [2]): completely abrogated measurable
